Reference: patent US20050203151A1, “Novel compounds, compositions and uses thereof for treatment of metabolic disorders and related conditions” (Kalypsys, Inc., priority 2003, published 2005)

Assays:
Assay type in all cases: cell-based
PPAR-alpha = molecular target: T1, PPAR-alpha (Homo sapiens, UniProt Q07869); assay: human PPAR-GAL4 chimera luciferase reporter assay in CV-1 cells, PPAR-alpha; details: Table 3, Examples 11-25, read-out: PPAR alpha (EC50)
T1 construct: expressed in transfected cells; host or cells: CV-1 cells
T1 sequence (Q07869 239-466 limits assumed): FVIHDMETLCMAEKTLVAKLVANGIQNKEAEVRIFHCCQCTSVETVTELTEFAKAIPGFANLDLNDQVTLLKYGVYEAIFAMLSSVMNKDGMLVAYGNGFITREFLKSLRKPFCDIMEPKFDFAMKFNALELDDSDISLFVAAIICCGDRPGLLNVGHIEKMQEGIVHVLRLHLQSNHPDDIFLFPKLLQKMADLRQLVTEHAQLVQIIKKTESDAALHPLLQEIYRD
Description: (§1) The compounds were evaluated in a cell-based assay to determine their human PPAR activity. The plasmids for human PPAR-GAL4 chimeras were prepared by fusing amplified cDNAs encoding the LBDs of PPARs to the C-terminal end of the yeast GAL4 DNA binding domain. CV-1 cells were grown and transiently transected with PerFectin (GTS, San Diego, Calif.) according to the manufacturer's protocol along with a luciferase reporter. Eight hours after transfection, 50 μl of cells were replated into 384 well plates ([…]). Sixteen hours after replating, cells were treated with either compounds or 1% DMSO for 24 hours. Luciferase activity was then assayed with Britelite (Perkin Elmer) following the manufacturer's protocol and measured with either the Perkin Elmer Viewlux or Molecular Devices Acquest.
(§2) Compounds may be screened for functional potency in transient transfection assays in CV-1 cells for their ability to activate the PPAR subtypes (transactivation assay). A previously established chimeric receptor system was utilized to allow comparison of the relative transcriptional activity of the receptor subtypes on the same synthetic response element and to prevent endogenous receptor activation from complicating the interpretation of results. See, for example, Lehmann, J. M.; Moore, L. B.; Smith-Oliver, T. A; Wilkinson, W. O.; Willson, T. M.; Kliewer, S. A., An antidiabetic thiazolidinedione is a high affinity ligand for peroxisome proliferator-activated receptory γ (PPARγ), J. Biol. Chem., 1995, 270, 12953-6. The ligand binding domains for murine and human PPAR-alpha, PPAR-gamma, and PPAR-delta are each fused to the yeast transcription factor GAL4 DNA binding domain. CV-1 cells were transiently transfected with expression vectors for the respective PPAR chimera along with a reporter construct containing four or five copies of the GAL4 DNA binding site driving expression of luciferase. After 8-16 h, the cells are replated into multi-well assay plates and the media is exchanged to phenol-red free DME medium supplemented with 5% delipidated calf serum. 4 hours after replating, cells were treated with either compounds or 1% DMSO for 20-24 hours. Luciferase activity was then assayed with Britelite (Perkin Elmer) following the manufacturer's protocol and measured with either the Perkin Elmer Viewlux or Molecular Devices Acquest (see, for example, Kliewer, S. A., et. al. Cell 1995, 83, 813-819). Rosiglitazone is used as a positive control in the hPPAR-γ assay. Wy-14643 and GW7647 is used as a positive control in the hPPAR-α assay. GW501516 is used as the positive control in the hPPAR-δ assay.

PPAR-gamma = molecular target: T2, PPAR-gamma (Homo sapiens, UniProt P37231); assay: human PPAR-GAL4 chimera luciferase reporter assay in CV-1 cells, PPAR-gamma; details: Table 3, Examples 11-25, read-out: PPAR gamma (EC50)
T2 construct: expressed in transfected cells; host or cells: CV-1 cells
T2 sequence (P37231 238-503 limits assumed): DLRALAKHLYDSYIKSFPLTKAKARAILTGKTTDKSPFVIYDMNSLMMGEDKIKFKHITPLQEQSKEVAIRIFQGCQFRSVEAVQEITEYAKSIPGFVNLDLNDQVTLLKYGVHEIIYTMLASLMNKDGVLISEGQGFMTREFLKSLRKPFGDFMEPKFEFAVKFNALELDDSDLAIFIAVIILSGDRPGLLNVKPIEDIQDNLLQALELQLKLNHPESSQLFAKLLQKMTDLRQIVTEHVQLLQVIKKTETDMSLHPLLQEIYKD
Description: as §1, §2

PPAR-delta = molecular target: T3, PPAR-delta (Homo sapiens, UniProt Q03181); assay: human PPAR-GAL4 chimera luciferase reporter assay in CV-1 cells, PPAR-delta; details: Table 3, Examples 11-25, read-out: PPAR delta (EC50)
T3 construct: expressed in transfected cells; host or cells: CV-1 cells
T3 sequence (Q03181 211-439 limits assumed): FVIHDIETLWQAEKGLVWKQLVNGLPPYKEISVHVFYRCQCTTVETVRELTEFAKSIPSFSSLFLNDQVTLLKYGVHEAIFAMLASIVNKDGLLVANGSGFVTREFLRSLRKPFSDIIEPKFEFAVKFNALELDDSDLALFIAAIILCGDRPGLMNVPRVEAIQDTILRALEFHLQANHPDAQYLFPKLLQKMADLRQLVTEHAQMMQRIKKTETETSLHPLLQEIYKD
Description: as §1, §2

EC50 (PPAR-alpha) [µM] | EC50 (PPAR-gamma) [µM] | EC50 (PPAR-delta) [µM] | SMILES
< 5 | 5 to 100 | 5 to 100 | Cc1nc(-c2ccc(C(F)(F)F)cc2)sc1CCn1ccc2ccc(OC(C)(C)C(=O)O)cc21 [Example 23, 2-Methyl-2-(1-{2-[4-methyl-2-(4-trifluoromethyl-phenyl)-thiazol-5-yl]-ethyl}-1H-indol-6-yloxy)-propionic acid]
5 to 100 | 5 to 100 | < 5 | Cc1nc(-c2ccc(C(F)(F)F)cc2)sc1Cn1cc(CC(=O)O)c2ccccc21 [Example 24, {1-[4-Methyl-2-(4-trifluoromethyl-phenyl)-thiazol-5-ylmethyl]-1H-indol-3-yl}acetic acid]
5 to 100 | 5 to 100 | < 5 | Cc1nc(-c2ccc(C(F)(F)F)cc2)sc1CCN1CCc2ccc(OCC(=O)O)cc21 [Example 25, (1-{2-[4-Methyl-2-(4-trifluoromethyl-phenyl)-thiazol-5-yl]-ethyl}-2,3-dihydro-1H-indol-6-yloxy)-acetic acid]
